Data reported in patent US8772316B2, “Substituted 6,7-dialkoxy-3-isoquinolinol derivatives as inhibitors of phosphodiesterase 10 (PDE10A)” (Allergan, Inc., priority 2011, dated 2014).
Where a name gives a salt, the structure may show the parent alone.

Key:
PDE10A [1] = target: PDE10A (Homo sapiens, UniProt Q9Y233); experiment: Phosphodiesterase assay (TR-FRET, LANCE cAMP kit); format: biochemical; conditions: PDE10A (BPS Bioscience) 200 pg/well, biotin-cAMP substrate, 60 min at room temperature
Protocol: (§1) The PDE assay is based on the homogenous time-resolved fluorescence resonance energy transfer (TR-FRET) technology (LANCE® from Perkin Elmer). […] When there is PDE activity, resulting in the degradation of the cyclic nucleotide, the complex is not formed and a decrease in signal is observed.
(§2) The phosphodiesterase assay was developed using the LANCE® cAMP kit (PerkinElmer). The assay buffer contained HBSS with 5 mM HEPES, 0.1% BSA, and 1.5 mM MgCl2, pH 7.4. PDE10A (BPS Bioscience) was used at 200 pg/well (with a specific activity of 3200 pmole/min/μg with assay conditions: 10 mM Tris-HCl, pH7.4, 10 mM MgCl2, 1 mM MnCl2, 200 μM cAMP, 2.5 kU 5′ nucleotidase, 37° C., 20 min). […] Chemical compounds were dissolved in DMSO (final concentration 2% (v/v)).
(§3) In a 384-well plate, 2 μL inhibitor and 3 μL PDE were added to the well, followed by the addition of 5 μl substrate biotinylated cAMP (1:5). After 60 min incubation at room temperature, 10 μL of assay detection mixture was added to the assay plate. After 1 h at room temperature, the signal was measured on EnVision™ (Perkin Elmer).

PDE10A [2] = experiment: Phosphodiesterase assay (TR-FRET, LANCE cAMP kit); format: biochemical; conditions: PDE10A (BPS Bioscience) 200 pg/well, biotin-cAMP substrate, 60 min at room temperature
Protocol: as §1, §2, §3

Chain of PDE10A (Homo sapiens, UniProt Q9Y233) (Q9Y233 whole entry, looked up): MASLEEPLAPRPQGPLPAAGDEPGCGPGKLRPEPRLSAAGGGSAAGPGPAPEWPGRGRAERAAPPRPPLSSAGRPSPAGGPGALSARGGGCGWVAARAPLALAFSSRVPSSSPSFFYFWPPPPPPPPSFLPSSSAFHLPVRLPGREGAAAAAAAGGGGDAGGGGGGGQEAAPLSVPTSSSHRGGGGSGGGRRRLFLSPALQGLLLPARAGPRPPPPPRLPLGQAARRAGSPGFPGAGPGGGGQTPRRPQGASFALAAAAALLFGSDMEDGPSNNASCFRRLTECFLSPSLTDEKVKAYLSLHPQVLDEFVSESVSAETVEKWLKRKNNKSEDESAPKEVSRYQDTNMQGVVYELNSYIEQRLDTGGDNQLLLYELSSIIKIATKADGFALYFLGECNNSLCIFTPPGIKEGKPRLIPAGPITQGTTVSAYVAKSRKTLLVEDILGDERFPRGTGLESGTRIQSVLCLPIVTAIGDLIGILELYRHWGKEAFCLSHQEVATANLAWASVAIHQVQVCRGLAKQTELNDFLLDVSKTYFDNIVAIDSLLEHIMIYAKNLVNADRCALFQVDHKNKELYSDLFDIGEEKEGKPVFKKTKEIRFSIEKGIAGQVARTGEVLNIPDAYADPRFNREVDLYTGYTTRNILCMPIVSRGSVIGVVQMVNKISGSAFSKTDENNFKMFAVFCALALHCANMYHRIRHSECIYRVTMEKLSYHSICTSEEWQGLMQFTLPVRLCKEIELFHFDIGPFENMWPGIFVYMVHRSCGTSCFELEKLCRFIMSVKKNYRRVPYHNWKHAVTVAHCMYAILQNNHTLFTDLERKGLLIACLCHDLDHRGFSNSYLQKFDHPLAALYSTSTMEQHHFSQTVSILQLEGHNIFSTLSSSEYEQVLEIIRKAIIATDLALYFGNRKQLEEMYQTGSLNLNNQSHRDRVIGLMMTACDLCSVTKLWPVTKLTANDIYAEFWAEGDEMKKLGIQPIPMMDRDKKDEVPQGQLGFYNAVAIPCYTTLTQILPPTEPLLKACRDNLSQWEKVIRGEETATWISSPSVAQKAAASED

SMILES	IC50 (PDE10A [1]) [nM]	IC50 (PDE10A [2]) [nM]
COc1cc2c(C)nc(O)c(Cc3cccc(Oc4ccccc4)c3)c2cc1OC [Compound 4, 6,7-dimethoxy-1-methyl-4-(3-phenoxybenzyl)isoquinolin-3-ol hydrochloride]	140	
COc1cc2c(C)nc(O)c(Cc3ccncc3)c2cc1OC [Compound 11, 6,7-dimethoxy-1-methyl-4-(pyridin-4-ylmethyl)isoquinolin-3-ol hydrochloride]	223	
COc1ccc(-c2cccc(Cc3c(O)nc(C)c4cc(OC)c(OC)cc34)n2)cc1 [Compound 13, 6,7-dimethoxy-4-((6-(4-methoxyphenyl)pyridin-2-yl)methyl)-1-methylisoquinolin-3-ol dihydrochloride]	50	
COc1cc2c(C)nc(O)c(Cc3cncc(-c4ccccc4)c3)c2cc1OC [Compound 15, 6,7-Dimethoxy-1-methyl-4-((5-phenylpyridin-3-yl)methyl)isoquinolin-3-ol dihydrochloride]	97	
CCc1nc(O)c(Cc2ccc3ccccc3c2)c2cc(OC)c(OC)cc12 [Compound 19, 1-ethyl-6,7-dimethoxy-4-(naphthalen-2-ylmethyl)isoquinolin-3-ol hydrochloride]	11	
COc1cc2c(C)nc(O)c(Cc3ccc4cnccc4c3)c2cc1OC [Compound 21, 4-(Isoquinolin-6-ylmethyl)-6,7-dimethoxy-1-methylisoquinolin-3-ol dihydrochloride]	333	
COc1cc2c(C)nc(O)c(Cc3cccc4cnccc34)c2cc1OC [Compound 22, 4-(Isoquinolin-5-ylmethyl)-6,7-dimethoxy-1-methylisoquinolin-3-ol dihydrochloride]	333	
CCCc1nc(O)c(Cc2cc3cc4c(cc3nc2N(C)C)OCO4)c2cc(OC)c(OC)cc12 [Compound 63, 4-((6-(dimethylamino)-[1,3]dioxolo[4,5-g]quinolin-7-yl)methyl)-6,7-dimethoxy-1-propylisoquinolin-3-ol dihydrochloride]		560
CCCc1nc(N)c(Cc2ccc3oc4ccccc4c3c2)c2cc(OC)c(OC)cc12 [Compound 65, 4-(dibenzo[b,d]furan-2-ylmethyl)-6,7-dimethoxy-1-propylisoquinolin-3-amine hydrochloride]		967
CCCc1nc(O)c(Cc2cc3cc(OC)ccc3nc2CC)c2cc(OC)c(OC)cc12 [Compound 66, 4-((2-ethyl-6-methoxyquinolin-3-yl)methyl)-6,7-dimethoxy-1-propylisoquinolin-3-ol dihydrochloride]		16
CCNc1nc2ccc(OC)cc2cc1Cc1c(O)nc(COC)c2cc(OC)c(OC)cc12 [Compound 67, 4-((2-(ethylamino)-6-methoxyquinolin-3-yl)methyl)-6,7-dimethoxy-1-(methoxymethyl)isoquinolin-3-ol dihydrochloride]		1.8
CCc1nc(O)c(Cc2cc3cc(OC)ccc3nc2N=[N+]=[N-])c2cc(OC)c(OC)cc12 [Compound 68, 4-((2-Azido-6-methoxyquinolin-3-yl)methyl)-1-ethyl-6,7-dimethoxyisoquinolin-3-ol dihydrochloride]		200
CCc1nc(O)c(Cc2cc3cc(OC)ccc3nc2NCCNC(C)=O)c2cc(OC)c(OC)cc12 [Compound 69, N-(2-(3-((1-Ethyl-3-hydroxy-6,7-dimethoxyisoquinolin-4-yl)methyl)-6-methoxyquinolin-2-ylamino)ethyl)acetamide dihydrochloride]		1.5
CCCc1nc(O)c(Cc2cc3cc(OC)c(F)cc3nc2NCC)c2cc(OC)c(OC)cc12 [Compound 70, 4-((2-(Ethylamino)-7-fluoro-6-methoxyquinolin-3-yl)methyl)-6,7-dimethoxy-1-propylisoquinolin-3-ol dihydrochloride]		2.4
CCCCc1nc2ccc(OC)cc2cc1Cc1c(O)nc(CCC)c2cc(OC)c(OC)cc12 [Compound 71, 4-((2-Butyl-6-methoxyquinolin-3-yl)methyl)-6,7-dimethoxy-1-propylisoquinolin-3-ol dihydrochloride]		93
CCCc1nc(O)c(Cc2cc3cc(OC)ccc3nc2C(F)(F)F)c2cc(OC)c(OC)cc12 [Compound 72, 6,7-Dimethoxy-4-((6-methoxy-2-(trifluoromethyl)quinolin-3-yl)methyl)-1-propylisoquinolin-3-ol hydrochloride]		445
COc1ccc2nc(NCCNC(C)=O)c(Cc3c(O)nc(C)c4cc(OC)c(OC)cc34)cc2c1 [Compound 73, N-(2-(3-((3-hydroxy-6,7-dimethoxy-1-methylisoquinolin-4-yl)methyl)-6-methoxyquinolin-2-ylamino)ethyl)acetamide dihydrochloride]		2.7
CCCc1nc(O)c(Cc2cnc3ccccc3c2)c2cc(OC)c(OC)cc12 [Compound 74, 6,7-dimethoxy-1-propyl-4-(quinolin-3-ylmethyl)isoquinolin-3-ol hydrochloride]		6.1
CCNc1nc2ccc(OC)cc2cc1C(=O)c1c(O)nc(C)c2cc(OC)c(OC)cc12 [Compound 75, (2-(ethylamino)-6-methoxyquinolin-3-yl)(3-hydroxy-6,7-dimethoxy-1-methylisoquinolin-4-yl)methanone dihydrochloride]		> 1000
CCCc1nc(O)c(Cc2cc3cc(OC)ccc3nc2NCCOC)c2cc(OC)c(OC)cc12 [Compound 76, 6,7-dimethoxy-4-((6-methoxy-2-(2-methoxyethylamino)quinolin-3-yl)methyl)-1-propylisoquinolin-3-ol dihydrochloride]		2.3
CCc1nc(O)c(Cc2cnc3ccccc3c2)c2cc(OC)c(OC)cc12 [Compound 78, 1-ethyl-6,7-dimethoxy-4-(quinolin-3-ylmethyl)isoquinolin-3-ol dihydrochloride]		27
CCc1nc(O)c(Cc2ccc3nc(C)ccc3c2)c2cc(OC)c(OC)cc12 [Compound 81, 1-Ethyl-6,7-dimethoxy-4-((2-methylquinolin-6-yl)methyl)isoquinolin-3-ol dihydrochloride]		7.5
CCNc1nc2cc(F)c(OC)cc2cc1Cc1c(O)nc(CC)c2cc(OC)c(OC)cc12 [Compound 82, 1-Ethyl-4-((2-(ethylamino)-7-fluoro-6-methoxyquinolin-3-yl)methyl)-6,7-dimethoxyisoquinolin-3-ol dihydrochloride]		1.4
CCCc1nc(O)c(Cc2cc3cc(OCC4CC4)ccc3nc2NCCNC(C)=O)c2cc(OC)c(OC)cc12 [Compound 83, N-(2-(6-(cyclopropylmethoxy)-3-((3-hydroxy-6,7-dimethoxy-1-propylisoquinolin-4-yl)methyl)quinolin-2-ylamino)ethyl)acetamide dihydrochloride]		10
CCCc1nc(O)c(Cc2cnc3ccc(OC)cc3c2)c2cc(OC)c(OC)cc12 [Compound 84, 6,7-Dimethoxy-4-((6-methoxyquinolin-3-yl)methyl)-1-propylisoquinolin-3-ol dihydrochloride]		1.6
CCc1nc(O)c(Cc2cnc3ccc(OC)cc3c2)c2cc(OC)c(OC)cc12 [Compound 85, 1-ethyl-6,7-dimethoxy-4-((6-methoxyquinolin-3-yl)methyl)isoquinolin-3-ol dihydrochloride]		0.4
CCc1nc(O)c(Cc2cc3cc(OCC4CC4)ccc3nc2NCCNC(C)=O)c2cc(OC)c(OC)cc12 [Compound 87, N-(2-((6-(cyclopropylmethoxy)-3-((1-ethyl-3-hydroxy-6,7-dimethoxyisoquinolin-4-yl)methyl)quinolin-2-yl)amino)ethyl)acetamide dihydrochloride]		3.9
